Values of other authors as cited in article PMC8654284 (Science Advances, 2021).
Where two headings read alike, the source gives them in different places.

Columns and labels:
NK1R [1] = system: NK1R
NK1R [2] = settings: said to explain the insurmountable antagonism only in part
NK1R [3] = settings: clinically used NK1R antagonists
NK1R [4] = settings: NKA and NKB compared to SP
NK1R E172K = settings: NK1R E172 mutated to lysine as found in NK3R
[5] = inhibition of receptor activation by SP

| Compound | mode of antagonism (NK1R [1]; [5]) | dissociation kinetics (NK1R [2]) | in vivo efficacy (duration) (NK1R [3]) | affinity for NK1R (NK1R [4]) | also measured |
| --- | --- | --- | --- | --- | --- |
| COc1ccccc1CN[C@H]1CCCN[C@H]1c1ccccc1 [CP-99,994] | – | – | – | – | mode of antagonism (NK1R [1]; compared to aprepitant and netupitant): tight-binding, but surmountable |
| C[C@@H](O[C@H]1OCCN(Cc2n[nH]c(=O)[nH]2)[C@H]1c1ccc(F)cc1)c1cc(C(F)(F)F)cc(C(F)(F)F)c1 [aprepitant] | pseudo-irreversible antagonists | slower dissociation kinetics | markedly prolonged in vivo efficacy | – | – |
| Cc1ccccc1-c1cc(N2CCN(C)CC2)ncc1N(C)C(=O)C(C)(C)c1cc(C(F)(F)F)cc(C(F)(F)F)c1 [netupitant] | pseudo-irreversible antagonists | slower dissociation kinetics | markedly prolonged in vivo efficacy | – | – |
| neurokinin A [NKA] | – | – | – | lower affinity compared to SP | – |
| neurokinin B [NKB] | – | – | – | lower affinity compared to SP | affinity of NKB at E172K mutant (NK1R E172K): increases affinity |
